Data as given in patent publication US7329644B2, “Preparation and use of cyclic and branched peptides and their labelled derivatives as therapeutic agents, cholecystokinin agonists or antagonists, and diagnostic agents to identify and locate tumours” (Bracco Imaging S.p.A., priority 2001, dated 2008).
Where two headings read alike, the source gives them in different places. Where a SMILES comes first, the peptide text is derived from it. Bridges are numbered along the chain shown (N, C = ends). [ ]: non-standard residue; d: D form. Dap = NC[C@H](N)C(=O)O

Columns and labels:
[1] = biological target: T1, fragment 1-47 of type A cholecystokinin receptor, CCKA-R(1-47) (Homo sapiens, UniProt P32238); test: Fluorescence spectroscopy binding to receptor fragment CCKA-R(1-47)
T1 construct: Fragment 1-47 of type A receptor, CCKA-R(1-47), and the compound of formula (IV), both synthesised by solid-phase peptide synthesis methods, were used; made in house; host or cells: chemical solid-phase peptide synthesis (no expression host)
T1 sequence (P32238 1-47): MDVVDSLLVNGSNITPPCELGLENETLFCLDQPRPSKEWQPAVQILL
From the text: The binding between the compound prepared as described in example 1 and fragment 1-47 of type A cholecystokinin receptor was studied with fluorescence spectroscopy. Although the compound of formula (IV), as it has no sulphate functions on the tyrosine residue, should have greater affinity for type B cholecystokinin receptor, the experiment performed and the results obtained are entirely legitimate, because the receptor fragment used contains no residues (Arg 197) which are known to be responsible for interaction with the sulphate group.
Fragment 1-47 of type A receptor, CCKA-R(1-47), and the compound of formula (IV), both synthesised by solid-phase peptide synthesis methods, were used. Reference should be made to example 1 for the synthesis of compound (IV); for the synthesis of the receptor fragment, see R. Ragone, 47-53, 56, 2001, Biopolymers).
The interaction between receptor fragment CCKA-R(1-47) and compound (IV) was observed by monitoring the tryptophan fluorescence. The emission spectra were recorded at room temperature using a Jasco FP-750 spectrofluorimeter at the excitation wavelength of 296 nm to excite the tryptophan selectively. Small aliquots of a concentrated solution of compound (IV) dissolved in phosphate buffer at pH 7.2 were added to a fixed volume of a solution of CCKA-R(1-47) dissolved in the same solvent, in the presence of a 10 mM solution of sodium dodecylsulphate micelles, used to mimic the cell membrane. […]
Increasing quantities of compound of formula (IV) were added from a concentrated master solution containing 10 mM SDS micelles.
As will be seen in FIG. 2, which exemplifies a typical saturation curve, the fluorescence signal is gradually quenched as a result of the binding. The experiments were performed at various receptor concentrations, and fluorescence quenching was always observed. […] To distinguish the modifications in fluorescence caused by the binding, the contributions to fluorescence of the receptor and peptide isolated were subtracted, and a small variation in fluorescence compared with the value measured was obtained.

[2] = system: type A cholecystokinin receptor; test: Intracellular calcium response in myenteric neurones (confocal microscopy); format: cell-based; details: perfusion for 60 seconds
From the text: Biological tests have been carried out to confirm the activity of the cyclic compound of formula (IV), using neurone cells which express type A cholecystokinin receptor. […] Both these compounds should show a lower level of activity than the corresponding analogs containing the sulphate group on the tyrosine residue. The biological activity tests involved the use of myenteric neurones as receptor-expressing cells, and the use of a confocal microscope with a suitable software package to measure peptide activity. The tests were based on the following assumptions: • 1) myenteric neurones (of the intestinal wall) normally express type A CCK receptor • 2) binding between CCK and the receptor induces excitation of the cell (change in membrane potential), which can be recorded with electrophysiology studies • 3) the cell excitation is coupled to the passage of calcium from the outside to the inside of the cell through specific membrane channels • 4) if the calcium is rendered fluorescent (using calcium chelators which modify the emission wavelength if they are excited at a particular wavelength), the increased concentration of the intracellular calcium in response to a stimulus can be recorded • 5) confocal laser microscopy with the aid of specific software therefore enables these phenomena to be recorded, and the fluorescence to be converted into the intracellular calcium concentration.

Row | Molecule | Kd ([1]; experiments at various receptor concentrations, read-out: Kd range estimated by fitting procedures) [nM] | Kd ([1]; experiments at various receptor concentrations, standard deviation ±27 nM, read-out: Kd mean) [nM] | Kd ([1]; receptor concentration 2.6 μM, 10 mM phosphate buffer pH 7.2, 10 mM SDS micelles, fluorescence at 335 nm, read-out: Kd (binding curve of FIG. 2)) [nM] | intracellular calcium concentration [2]
1 | CSCC[C@@H]1NC(=O)[C@H](Cc2c[nH]c3ccccc23)NC(=O)[C@@H](NC(=O)[C@H](CCSC)NC(=O)[C@H](Cc2ccc(O)cc2)NC(=O)[C@@H](N)CC(=O)O)CNC(=O)[C@H](CCCCN)NC(=O)[C@H](Cc2ccccc2)NC(=O)[C@H](CC(=O)O)NC1=O [(IV)] (H-DYM[Dap]WMDFK; lactam 4-C) | 50 to 200 | 120 | 255 | –
2 | Asp-Tyr-Met-Gly-Trp-Met-Asp-Phe-amide [CCK8] | – | – | – | induce an increase in the intracellular calcium concentration
